“And” between values parts separate entries of the source, which are not always exact repeats. Identical values can stand only once. Toxic doses and inconclusive results are not listed. Cut-off read from the data, not from the text of the source: active = T/C of 150% or more; inactive = T/C below 125%.
Tested on: L1210 leukemia ip in BDF1 mice, survival T/C
Assay: NCI In Vivo Anticancer Drug Screen. Data for tumor model L1210 Leukemia (intraperitoneal) in B6D2F1 (BDF1) mice
Settings: endpoint: mean survival time, higher = longer survival
Method in brief: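 Value reflects the ratio of survival in compound-treated mice to survival in vehicle-treated controls, with both groups carrying the same transplanted tumor.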

[1] = dose: 100.0 mg/kg/injection, schedule: Q01DX001 (ip), vehicle: saline
[2] = dose: 200.0 mg/kg/injection, schedule: Q01DX001 (ip), vehicle: saline
[3] = dose: 400.0 mg/kg/injection, schedule: Q01DX001 (ip), vehicle: saline
[4] = dose: 200.0 mg/kg/injection, schedule: Q04DX002 (ip), vehicle: saline
[5] = dose: 50.0 mg/kg/injection, schedule: Q01DX009 (ip), vehicle: saline
[6] = dose: 200.0 mg/kg/injection, schedule: Q04DX003 (ip), vehicle: saline

Measured: T/C

Oc1ccc(N=Cc2ccccc2O)cc1
active: [2] 207 % of control | [3] 260 % of control
inactive: [1] 90 % of control | dose: 116.0 mg/kg/injection, schedule: Q01DX015 (ip), vehicle: steriod suspending solution 108 % of control | dose: 175.0 mg/kg/injection, schedule: Q01DX015 (ip), vehicle: steriod suspending solution 123 % of control | dose: 178.0 mg/kg/injection, schedule: Q01DX001 (ip), vehicle: steriod suspending solution 100 % of control | dose: 267.0 mg/kg/injection, schedule: Q01DX001 (ip), vehicle: steriod suspending solution 103 % of control | dose: 270.0 mg/kg/injection, schedule: Q01DX Z (ip), vehicle: carboxymethylcellulose (CMC) 104 % of control | dose: 400.0 mg/kg/injection, schedule: Q01DX001 (ip), vehicle: steriod suspending solution 101 % of control | dose: 400.0 mg/kg/injection, schedule: Q01DX Z (ip), vehicle: carboxymethylcellulose (CMC) 115 % of control | dose: 600.0 mg/kg/injection, schedule: Q01DX001 (ip), vehicle: steriod suspending solution 105 % of control

Cc1ccc(COC(=O)c2cccnc2)cc1
inactive: dose: 100.0 mg/kg/injection, schedule: Q01DX001 (ip), vehicle: Klucel (hydroxypropylcellulose) (HPC) 103 % of control | dose: 200.0 mg/kg/injection, schedule: Q01DX001 (ip), vehicle: Klucel (hydroxypropylcellulose) (HPC) 100 % of control | dose: 400.0 mg/kg/injection, schedule: Q01DX001 (ip), vehicle: Klucel (hydroxypropylcellulose) (HPC) 103 % of control

C=C(C)COc1c(C)c(C)c(OCC(=C)C)c(C)c1C
inactive: dose: 100.0 mg/kg/injection, schedule: Q01DX001 (ip), vehicle: DMSO 89 % of control | dose: 400.0 mg/kg/injection, schedule: Q01DX001 (ip), vehicle: DMSO 94 % of control

CC(C)CC(Br)C(=O)NCC(=O)NC(Cc1ccccc1)C(=O)O (stereo not given)
inactive: dose: 100.0 mg/kg/injection, schedule: Q01DX009 (ip), vehicle: saline with Tween-80 96 % of control | dose: 200.0 mg/kg/injection, schedule: Q01DX009 (ip), vehicle: saline with Tween-80 93 % of control

COc1ccc2c(C)c(C)[nH]c2c1
inactive: dose: 50.0 mg/kg/injection, schedule: Q01DX001 (ip), vehicle: saline 101 % of control | [1] 109 % of control | [2] 115 % of control | [3] 104 % of control

Cc1cccc(NC(=O)Cc2ccccc2)c1C
inactive: dose: 100.0 mg/kg/injection, schedule: Q04DX002 (ip), vehicle: saline 99 % of control | [4] 105 % of control | dose: 400.0 mg/kg/injection, schedule: Q04DX002 (ip), vehicle: saline 101 % of control

CCCC(NC)C(CC)CN (stereo not given)
93 % of control and 242 % of control: dose: 200.0 mg/kg/injection, schedule: Q01DX001 (ip), vehicle: carboxymethylcellulose (CMC)
inactive: dose: 50.0 mg/kg/injection, schedule: Q01DX001 (ip), vehicle: carboxymethylcellulose (CMC) 105 % of control and 120 % of control | dose: 75.0 mg/kg/injection, schedule: Q01DX001 (ip), vehicle: saline 97 % of control | dose: 88.0 mg/kg/injection, schedule: Q01DX001 (ip), vehicle: saline 109 % of control | dose: 100.0 mg/kg/injection, schedule: Q01DX001 (ip), vehicle: carboxymethylcellulose (CMC) 104 % of control | dose: 133.0 mg/kg/injection, schedule: Q01DX001 (ip), vehicle: saline 101 % of control | dose: 150.0 mg/kg/injection, schedule: Q01DX001 (ip), vehicle: saline 97 % of control | [2] 101 % of control

O=C1Nc2cccc3cc([N+](=O)[O-])cc1c23
inactive: [1] 101 % of control | [2] 93 % of control | [3] 103 % of control

Cc1cn(C2CC(CO)CC2O)c(=O)[nH]c1=O (stereo not given)
inactive: [5] 104 % of control | dose: 100.0 mg/kg/injection, schedule: Q01DX009 (ip), vehicle: saline 107 % of control | dose: 200.0 mg/kg/injection, schedule: Q01DX009 (ip), vehicle: saline 107 % of control

COc1cc2c(c(OC)c1O)-c1ccc(OC)c(=O)cc1[C@@H](NC(C)=O)CC2
active: dose: 25.0 mg/kg/injection, schedule: Q01DX009 (ip), vehicle: saline 159 % of control
inactive: [5] 106 % of control and 108 % of control | dose: 50.0 mg/kg/injection, schedule: Q04DX002 (ip), vehicle: saline 111 % of control | [4] 122 % of control | [6] 95 % of control

c1ccc2c(c1)Sc1cnccc1N2CC1CO1 (stereo not given)
inactive: dose: 100.0 mg/kg/injection, schedule: Q04DX003 (ip), vehicle: saline 96 % of control | [6] 92 % of control | dose: 400.0 mg/kg/injection, schedule: Q04DX003 (ip), vehicle: saline 96 % of control

CCc1ccccc1NC(=O)Nc1cc(C)on1
inactive: dose: 100.0 mg/kg/injection, schedule: Q01DX009 (ip), vehicle: Klucel (hydroxypropylcellulose) (HPC) 103 % of control | dose: 200.0 mg/kg/injection, schedule: Q01DX009 (ip), vehicle: Klucel (hydroxypropylcellulose) (HPC) 110 % of control | dose: 400.0 mg/kg/injection, schedule: Q01DX009 (ip), vehicle: Klucel (hydroxypropylcellulose) (HPC) 107 % of control
